Like-named read-outs stand apart in the source and are kept apart here.
Experiments:
[1] = test system: HeLa cells transfected with pde3a siRNA; test: RTCA growth monitoring of HeLa cells after pde3a siRNA knockdown and anagrelide treatment; assay type: cell-based, human; conditions: pde3a siRNA KD1/KD2 vs NC
Protocol: Wherein, NC: control group, KD: PDE3A knockdown group. The HeLa cells in logarithmic growth phase were inoculated into 96-well plates or RTCA plates at about 6000/well and cultivated overnight until the cells were attached about 70-80%, and the cells were in good condition; a certain amount of serum-free and antibiotic-free medium was added into two EP tubes, respectively, and a suitable amount of siRNA was added into one tube and mixed, while a suitable amount of Lipofectamine™2000 was added into the other tube and mixed at room temperature for 5-10 min. The medium supplemented with Lipofectamine™ reagent was added into the siRNA-containing EP tube and mixed at room temperature for 15 min; during the placement, the cells were washed once with serum-free and non-double antibody medium, and 75 μL of the medium was added, ready for use. After 15 minutes, the mixed medium was added into the cell culture dish, 25 μL/well, and gently shaken and mixed; after cultured at 37° C., 5% CO2 for 6 hours, the medium was changed to fresh medium containing 10% FBS; after 24-72 h, the expression of RNAi interference protein was detected by western blot. […] The real-time monitor automatically monitored cell growth for more than 4 days, and the amount of cells was reflected according to the size of the resistance formed by spreading the cells. […]

[2] = test system: SMMC7721, FHCC98, H4, and HeLa; test: Antitumor activity assay (MTT), anagrelide-sensitive PDE3A-positive cell lines; assay type: cell-based, human; conditions: for IC50: Homo sapiens
Protocol: (§1) Wherein anagrelide (1 μM) is used for treatment for 72 hours, and MTT assay is used to detect the cell survival rate. The cells are classified by the test results: sensitive (survival rate <40%), moderately sensitive (40-75% of survival rate), resistance (survival rate >75. The cell names in the figure are marked with a circle and a triangle respectively to identify the sensitive group and the moderately sensitive group. 3. Determination of Half Poisoning Dose of Drugs to Cells (MTT Method) The liquid containing drugs was continuously geometrically diluted to 1:10, 1:100, 1:1,000, 1:10,000 with a cell maintenance solution, and a normal cell control group was set up. Different concentrations of each drug were added into a 96-well plate that has been grown into a single layer, respectively, and inoculated per dilution in triplicate, and 100 μl was added per well, and the plate was incubated in a carbon dioxide incubator at 37° C. for 72 h, followed by 5 μg/ml 25 μL of MTT was added. The culture was continued for 3.5 h, and the supernatant was removed and discarded. 150 μl of the dissolving solution DMSO was added to each well, and the plate was shaked for 5 to 10 min, until the crystals were completely dissolved. Then the OD value at 570 nm was measured by a microplate reader. The cell viability of each drug dilution was calculated: cell viability %=(mean value of experimental well OD measured value/mean value of control well OD measured value)×100%. The drug concentration at 50% cell poisoning (IC50) was calculated using probability unit regression. The cell lines in Example 1 were subjected to an activity assay using Anagrelide at a concentration of 1 μM, and the cell lines were classified into three categories according to cell viability: sensitive (S), moderately sensitive (M), and insensitive (R), and the IC50 value of anagrelide in inhibiting each cell line was further determined.

[3] = test system: SMMC7721; test: MTT assay, IC50 of anagrelide on tumor cell line; assay type: cell-based; conditions: Homo sapiens, SMMC-7721, 72 h
Protocol: (§2) 3. Determination of Half Poisoning Dose of Drugs to Cells (MTT Method)
(§3) The liquid containing drugs was continuously geometrically diluted to 1:10, 1:100, 1:1,000, 1:10,000 with a cell maintenance solution, and a normal cell control group was set up. Different concentrations of each drug were added into a 96-well plate that has been grown into a single layer, respectively, and inoculated per dilution in triplicate, and 100 μl was added per well, and the plate was incubated in a carbon dioxide incubator at 37° C. for 72 h, followed by 5 μg/ml 25 μL of MTT was added.
(§4) The culture was continued for 3.5 h, and the supernatant was removed and discarded. 150 μl of the dissolving solution DMSO was added to each well, and the plate was shaked for 5 to 10 min, until the crystals were completely dissolved. Then the OD value at 570 nm was measured by a microplate reader. The cell viability of each drug dilution was calculated: cell viability %=(mean value of experimental well OD measured value/mean value of control well OD measured value)×100%. The drug concentration at 50% cell poisoning (IC50) was calculated using probability unit regression.
(§5) The cell lines in Example 1 were subjected to an activity assay using Anagrelide at a concentration of 1 μM, and the cell lines were classified into three categories according to cell viability: sensitive (S), moderately sensitive (M), and insensitive (R), and the IC50 value of anagrelide in inhibiting each cell line was further determined.

[4] = test system: Bel7404; test: MTT assay, IC50 of anagrelide on tumor cell line; assay type: cell-based; conditions: Homo sapiens, BEL-7404, 72 h
Protocol: as §2, §3, §4, §5

[5] = test system: H4; test: MTT assay, IC50 of anagrelide on tumor cell line; assay type: cell-based; conditions: Homo sapiens, 72 h
Protocol: as §2, §3, §4, §5

[6] = test system: Hela; test: MTT assay, IC50 of anagrelide on tumor cell line; assay type: cell-based; conditions: Homo sapiens, 72 h
Protocol: as §2, §3, §4, §5

[7] = test system: SW1116; test: MTT assay, IC50 of anagrelide on tumor cell line; assay type: cell-based; conditions: Homo sapiens, SW 1116, 72 h
Protocol: as §2, §3, §4, §5

[8] = test system: A498; test: MTT assay, IC50 of anagrelide on tumor cell line; assay type: cell-based; conditions: Homo sapiens, 72 h
Protocol: as §2, §3, §4, §5

[9] = test system: FHCC98; test: MTT assay, IC50 of anagrelide on tumor cell line; assay type: cell-based; conditions: Homo sapiens, FHCC-98, 72 h
Protocol: as §2, §3, §4, §5

[10] = test system: HeLa cells transfected with pde3a siRNA; test: PI detection of apoptotic cells in HeLa after PDE3A knockdown and anagrelide treatment; assay type: cell-based, human; conditions: 48 hours after PDE3A knockout, anagrelide 36 hours, PI staining
Protocol: The HeLa cells in logarithmic growth phase were inoculated into 96-well plates or RTCA plates at about 6000/well and cultivated overnight until the cells were attached about 70-80%, and the cells were in good condition; a certain amount of serum-free and antibiotic-free medium was added into two EP tubes, respectively, and a suitable amount of siRNA was added into one tube and mixed, while a suitable amount of Lipofectamine™2000 was added into the other tube and mixed at room temperature for 5-10 min. The medium supplemented with Lipofectamine™ reagent was added into the siRNA-containing EP tube and mixed at room temperature for 15 min; during the placement, the cells were washed once with serum-free and non-double antibody medium, and 75 μL of the medium was added, ready for use. After 15 minutes, the mixed medium was added into the cell culture dish, 25 μL/well, and gently shaken and mixed; after cultured at 37° C., 5% CO2 for 6 hours, the medium was changed to fresh medium containing 10% FBS; after 24-72 h, the expression of RNAi interference protein was detected by western blot. In 96-well plates, cells were treated with different compounds for 24-36 hours, and 2 μL of PI dye liquor (25 ug/mL) was added into 96-well plates. Cells were incubated for 20 min, and photographed under a fluorescence microscope for observation of the number of red fluorescent cells. […]

[11] = test system: Twenty cell lines negatively expressing PDE3A; test: Antitumor activity assay (MTT), PDE3A-negative cell lines; assay type: cell-based, human
Protocol: as §1, with “150 μl of the dissolving solution DMSO was added to each well, and the plate was shaked for 5 to 10 min, until the crystals were completely dissolved.” left out, “The drug concentration at 50% cell poisoning (IC50) was calculated using probability unit regression. The cell lines in Example 1 were subjected to an activity assay using Anagrelide at a concentration of 1 μM, and the cell lines were classified into three categories according to cell viability: sensitive (S), moderately sensitive (M), and insensitive (R), and the IC50 value of anagrelide in inhibiting each cell line was further determined.” left out

[12] = Animal experiment, safety at tumor-inhibiting doses; assay type: in vivo; conditions: 10 mg-200 mg/kg
[13] = test system: Bel7404, A498 and SW1116; test: Antitumor activity assay (MTT), moderately sensitive PDE3A-positive cell lines; assay type: cell-based, human
Protocol: as §1, with “150 μl of the dissolving solution DMSO was added to each well, and the plate was shaked for 5 to 10 min, until the crystals were completely dissolved.” left out, “The drug concentration at 50% cell poisoning (IC50) was calculated using probability unit regression. The cell lines in Example 1 were subjected to an activity assay using Anagrelide at a concentration of 1 μM, and the cell lines were classified into three categories according to cell viability: sensitive (S), moderately sensitive (M), and insensitive (R), and the IC50 value of anagrelide in inhibiting each cell line was further determined.” left out

[14] = test system: platelets; test: Inhibition of platelets in vitro; assay type: cell-based; conditions: Platelet; read-out: IC50 of anagrelide inhibiting platelets in vitro

IC50 ([2]; SMMC7721, FHCC98, H4, HeLa (PDE3A positive), read-out: IC50 values, sensitive cell lines): < 30 nM | IC50 ([2]; sensitive tumor cells, in vitro, read-out: IC50 for sensitive tumor cells in vitro): < 30 nM | IC50 [3]: 15 nM | IC50 [4]: 428 nM | IC50 [5]: 23 nM | IC50 [6]: 22 nM | IC50 [7]: 14.5 µM | IC50 [8]: 15.9 µM | IC50 [9]: 8 nM | IC50 ([11]; Homo sapiens, twenty cell lines negatively expressing PDE3A): > 50 µM | IC50 ([13]; Homo sapiens, Bel7404, A498, SW1116 (PDE3A positive)): 0.4 to 16 µM | IC50 [14]: 270 to 1000 nM
SMILES: O=C1CN2Cc3c(ccc(Cl)c3Cl)NC2=N1 [anagrelide, 6,7-dichloro-1,5-dihydroimidazo [2,1-b]quinazolin-2(3H) one]
survival rate after anagrelide was added, KD vs NC group [1]: the survival rate of KD2 with the lower level of PDE3A protein was the highest, while that in the NC group was the lowest | sensitivity class by cell survival rate ([2]; anagrelide 1 μM, 72 hours, MTT): sensitive (sensitive (survival rate <40%)) | PI positive cells, KD group vs control group [10]: fewer PI positive cells than that in the control group | sensitivity class by cell survival rate ([11]; anagrelide 1 μM, 72 hours, MTT): not sensitive | safety at doses that inhibit tumor cell growth [12]: safe | sensitivity class by cell survival rate ([13]; anagrelide 1 μM, 72 hours, MTT): moderately sensitive (moderately sensitive (40-75% of survival rate))

— patent publication US20190145978A1, “APPLICATION OF PDE3A IN JUDGMENT OF TUMOR TREATMENT EFFECT OF ANAGRELID” (Shanghai Institute of Materia Medica, Chinese Academy of …, priority 2016, published 2019)
